Assay results taken from ChEMBL document CHEMBL2095176, “GSK Tuberculosis Screening Data”.
Converted amounts (≈) assume the structure as drawn.

Tested on: Mycobacterium tuberculosis variant bovis BCG
Test: microbe, parasite or virus in culture
Type: functional

`O=C1N(C2CCCCC2)CCS1(=O)=O` was tested, and the MIC90 was 3.1 µM (≈ 0.674 µg/mL).

Work on `N#Cc1ccc2c(c1)CCN(CCCSc1ccnc3cc(C(F)(F)F)ccc13)CC2` yielded an MIC90 of 3.2 µM (≈ 1.41 µg/mL).

`c1ccc(Nc2nc(-c3ccccn3)cs2)nc1` gave an MIC90 of 0.9 µM (≈ 0.229 µg/mL).

`CCCCNC(=O)c1cccc(-c2ccc(OCc3ccccc3)cc2)c1` showed an MIC90 of 9.9 µM (≈ 3.56 µg/mL).

Compound `COc1ccc2nc(C)cc(OCC(=O)Nc3ccccc3OC)c2c1` has an MIC90 of 1.4 µM (≈ 0.493 µg/mL).

`CCCc1ccc(S(=O)(=O)Nc2ccc(CN3CCN(CC4CC4)CC3)cc2)cc1.O=C(O)C(F)(F)F.O=C(O)C(F)(F)F` gave an MIC90 of 8.1 µM.

In the case of `O=C(NCc1ccccc1)N1CCN(Cc2ccc3c(c2)OCO3)CC1`, the MIC90 is reported as 4.9 µM (≈ 1.73 µg/mL).

With `Brc1ccc2cc(C3=NCCCO3)[nH]c2c1` the MIC90 was 7.1 µM (≈ 1.98 µg/mL).

Work on `Cc1ccc(C)c2nc(N3CCN(C)CC3)c(C#N)cc12` yielded an MIC90 of 9.4 µM (≈ 2.64 µg/mL).

In the case of `Clc1cc(N2CCN(c3ccncc3)CC2)ncn1`, the MIC90 is reported as 5.1 µM (≈ 1.41 µg/mL).

With `CCCCOc1ccc(S(=O)(=O)NCCCn2nc(Cl)c(N3CCCNCC3)cc2=O)cc1` the MIC90 was 4.4 µM (≈ 2.19 µg/mL).

For `CC(Oc1ccccc1)C(=O)Nc1nc(-c2ccccn2)cs1` (configuration not stated), the MIC90 was 5.4 µM (≈ 1.76 µg/mL).

With `CC[C@H]1CN2CC[C@@H]1C[C@H]2[C@H](O)c1cc(-c2cccnc2)nc2ccc(OC)cc12` the MIC90 was 8.3 µM (≈ 3.35 µg/mL).

For `c1cc(Oc2ccnc(N3CCC4(CCNC4)CC3)n2)c2cc[nH]c2c1`, the MIC90 was 7.5 µM (≈ 2.62 µg/mL).

Work on `CC(C)c1ccc2oc(-c3ccc(NC(=O)c4cccnc4)cc3)nc2c1` yielded an MIC90 of 1.2 µM (≈ 0.429 µg/mL).

With `Cc1cccc(-c2noc(CNC(=O)c3ccccc3CCc3ccccc3)n2)c1` the MIC90 was 6.1 µM (≈ 2.42 µg/mL).

`O=C(C=Cc1ccccc1)Nc1nc(-c2ccccn2)cs1` gave an MIC90 of 3.3 µM (≈ 1.01 µg/mL).

Work on `CC(C)c1ccc(OCC(=O)NNC(=O)c2ccncc2)cc1` yielded an MIC90 of 6.5 µM (≈ 2.04 µg/mL).

`O=C(Nc1nc(-c2ccccn2)cs1)c1ccno1` showed an MIC90 of 1.8 µM (≈ 0.49 µg/mL).

`COc1ccc(-c2nc(-c3cccc(NC(=O)Cc4ccc(F)cc4)c3)no2)cc1OC` showed an MIC90 of 2.3 µM (≈ 0.997 µg/mL).

For `CSc1nc2ccccc2n1-c1nccc(N2CCN(CCN)CC2)n1`, the MIC90 was 9.9 µM (≈ 3.66 µg/mL).

Compound `CCCc1cc(=O)[nH]c(-n2nc(C)cc2NC(=O)CC(c2ccccc2)c2ccccc2)n1` has an MIC90 of 7.5 µM (≈ 3.31 µg/mL).

Work on `O=C(COc1ccc(Br)cc1Cl)Nc1nc(-c2ccccn2)cs1` yielded an MIC90 of 4.6 µM (≈ 1.95 µg/mL).

`O=C(Nc1ccccc1C(F)(F)F)N1CCN(c2ccc3nnc(-c4ccc(F)cc4)n3n2)CC1` was tested, and the MIC90 was 4 µM (≈ 1.94 µg/mL).

With `Cc1cccc2nc(C(=O)Nc3nc(CN4CCC(C)CC4)cs3)cn12` the MIC90 was 2 µM (≈ 0.739 µg/mL).

For `Cc1ccc2nc(N(CCCn3ccnc3)C(=O)C=Cc3cccs3)sc2c1`, the MIC90 was 8.2 µM (≈ 3.35 µg/mL).

`COc1ccc(-c2ccc(Nc3cccc(S(=O)(=O)CCNCC4CCCO4)c3)nc2)cn1` (configuration not stated) showed an MIC90 of 7 µM (≈ 3.28 µg/mL).

In the case of `COc1ccc(N(C(=O)CNc2ccccc2Nc2ccccc2)C2CCCC2)cc1`, the MIC90 is reported as 2.1 µM (≈ 0.873 µg/mL).

`CC(=O)Oc1ccc(Cn2cc(C(=O)NCc3ccccc3)sc2=O)cc1` showed an MIC90 of 6.9 µM (≈ 2.64 µg/mL).

Work on `CNC1=NC(=O)[C@H]([C@H](C)c2c[nH]c3ccccc23)O1` [INDOMYCIN] yielded an MIC90 of 5 µM (≈ 1.29 µg/mL).

`c1ccc(CNc2ncc(-c3ccc(CNCC4CCCO4)cc3)cn2)cc1` (configuration not stated) showed an MIC90 of 8.8 µM (≈ 3.3 µg/mL).

With `c1coc(-c2nnc(Sc3ccnc(N4CCN(c5ccncc5)CC4)n3)n2CCN2CCOCC2)c1` the MIC90 was 5.3 µM (≈ 2.75 µg/mL).

For `Cc1cc(C)c2cc(CN(Cc3cccnc3)C(=O)c3ccccc3F)c(Cl)nc2c1`, the MIC90 was 1.7 µM (≈ 0.738 µg/mL).

Work on `O=C(Nc1cccc2cccnc12)c1cnccn1` yielded an MIC90 of 9.4 µM (≈ 2.35 µg/mL).

In the case of `O=C(Nc1ccc(F)c(Cl)c1)c1cnc(N2CCN(c3ncccn3)CC2)c2ccccc12`, the MIC90 is reported as 7.5 µM (≈ 3.47 µg/mL).

Work on `Cc1cc(C)c2cc(CN(Cc3cccnc3)C(=O)c3ccc(F)cc3)c(Cl)nc2c1` yielded an MIC90 of 2.9 µM (≈ 1.26 µg/mL).

Compound `Cc1ccc(C2(c3ccc(C)cc3)NC(=O)N(CC(=O)N3CCC(Cc4ccccc4)CC3)C2=O)cc1` has an MIC90 of 6.2 µM (≈ 3.07 µg/mL).

Work on `O=C(CSc1nnc(Nc2ccccc2)s1)NNC(=O)c1cccs1` yielded an MIC90 of 8.2 µM (≈ 3.21 µg/mL).

With `COc1ccc(N2CCN(c3ccc(C#N)cc3C(F)(F)F)CC2)c(OC)c1` the MIC90 was 3.7 µM (≈ 1.45 µg/mL).

Compound `O=C(CCCOc1ccccc1)Nc1nc(-c2ccccn2)cs1` has an MIC90 of 5.4 µM (≈ 1.83 µg/mL).

`CCOC(=O)c1csc(-c2ccccc2NC(=O)OCC2CCNCC2)n1` gave an MIC90 of 9.3 µM (≈ 3.62 µg/mL).

`CCN(CC)c1ccc(-c2nn3c(-c4n[nH]c5c4CCC5)nnc3s2)cc1` was tested, and the MIC90 was 7 µM (≈ 2.66 µg/mL).

Work on `CS(=O)(=O)N1CCN(c2ccccc2NC(=O)C(Cl)(Cl)Cl)CC1` yielded an MIC90 of 3.9 µM (≈ 1.56 µg/mL).

With `CCc1ccc(S(=O)(=O)Nc2cc(CN3CCN(CC4CC4)CC3)ccc2C)cc1` the MIC90 was 9.6 µM (≈ 4.11 µg/mL).

With `COc1ccc(-c2cc3nccc(C4CCNCC4)n3n2)cc1` the MIC90 was 5.7 µM (≈ 1.76 µg/mL).

`CN(C)c1cc(C(=O)NCC2CCCCC2)ccc1NC(=O)OCc1ccccc1` gave an MIC90 of 5.6 µM (≈ 2.29 µg/mL).

In the case of `O=C(Nc1nnc(-c2ccc(Cl)cc2)o1)c1cc(F)cc(F)c1`, the MIC90 is reported as 4.1 µM (≈ 1.38 µg/mL).

With `O=C(Nc1nc(-c2ccccn2)cs1)c1cncn1-c1ccccc1` the MIC90 was 4.9 µM (≈ 1.7 µg/mL).

In the case of `COc1ccc(-c2ccc(Nc3cccc(S(=O)(=O)CCN(C)CCc4ccccn4)c3)nc2)cn1`, the MIC90 is reported as 7.3 µM (≈ 3.68 µg/mL).

In the case of `Clc1ccc(-c2ccc3c(c2)CC(NCc2ccc(-n4cncn4)cc2)C3)cc1` (configuration not stated), the MIC90 is reported as 6.7 µM (≈ 2.69 µg/mL).

`COc1cccc(-c2cc(OC[C@@H]3CCCN3)cnc2-c2cccc(C(F)(F)F)c2)c1` was tested, and the MIC90 was 5.9 µM (≈ 2.53 µg/mL).

Work on `Cn1cc(-c2noc(/C=C3/CCN4CCCC[C@@H]4C3)n2)c2ccccc21` yielded an MIC90 of 7.3 µM (≈ 2.54 µg/mL).

`COc1ccc2cnnc(SCC(=O)NNC(=O)c3cccs3)c2c1OC` gave an MIC90 of 3 µM (≈ 1.21 µg/mL).

With `Cn1cc(-c2noc(CCNCCC(C)(C)C)n2)c2ccccc21` the MIC90 was 9.3 µM (≈ 3.04 µg/mL).

`CCc1nc2ccccc2n1CC(O)COc1cc(C)ccc1Cl` (configuration not stated) showed an MIC90 of 9.7 µM (≈ 3.34 µg/mL).

In the case of `CN(Cc1nc2ccccc2s1)C(=O)c1cccc(NC(=O)c2ccncc2)c1`, the MIC90 is reported as 1.7 µM (≈ 0.684 µg/mL).

In the case of `Cc1cc(C)c2nc(N3CCN(C)CC3)cc(C)c2c1`, the MIC90 is reported as 8.9 µM (≈ 2.4 µg/mL).
